Measured values reported in patent US20070202203A1, “ANTI-AGEING COMPOSITION” (L'OREAL, priority 2006, published 2007).

Tested on: dermal equivalent consisting of a collagen matrix seeded with normal human fibroblasts
Assay: Dermodecontracting effect: spontaneous contraction of dermal equivalent
Type: cell-based
Settings: surface area after 24 h of contraction; control = 100; manganese gluconate 0.0005%, adenosine 0.004%
Text: These conditions are intended to mimic in vitro, the dermal contractile phenomena that occur during dermal tensing of the face, for example during facial expressions. Under these conditions, in fact, the cells spontaneously express tensile forces that induce retraction of the collagen gel. […] The measurement of this surface area makes it possible to evalue the relaxing or dermocontracting effects of the substances previously brought into contact with the dermal equivalent. […] The experiment is repeated three times. The dermal equivalents are prepared as described in Asselineau et al., Exp. Cell. Res., 1985, 159, 536-539; Models in dermatology, 1987, vol 3 pp 1-7, in the following proportions: The collagen used is collagen type I (commercial solution), but collagen type III or IV can also be used. It is extracted from rat tails or from calf skin by acid hydrolysis and conserved in an acidic medium at […]; it polymerizes naturally by heating to 37° C. and by decreasing the degree of acidity. The collagen is dialysed beforehand against successive baths of water +acetic acid. […] For this, a digital image is acquired for each treated or nontreated dermal equivalent by means of a camera (CCD camera—Iris Sony DXC—107P) and the surface area is then calculated on each image by means of an image analysis system (Zeiss Axiovision 3.0). […]

Row | Compound | % contraction [%]
1 | Nc1ncnc2c1ncn2[C@@H]1O[C@H](CO)[C@@H](O)[C@H]1O [Adenosine, adenosine] | 82
2 | manganese gluconate | 89
